Experimental data from the NIST ThermoML archive (doi:10.1021/acs.jced.9b00752).

Assay: mn = molality of the nth substance listed, in mol/kg
Conditions: 100 kPa, Liquid, Vibrating tube method

N[C@@H](Cc1c[nH]c2ccccc12)C(=O)O [L-tryptophan] + O
mass density [kg/m3]
Conditions	278.65 K	279.15 K	279.65 K	280.15 K	280.65 K	281.15 K	281.65 K	282.15 K	282.65 K	283.15 K
m1 = 0.0035	1000.16	1000.15	1000.13	1000.11	1000.09	1000.06	1000.02	999.99	999.95	999.908
m1 = 0.009	1000.52	1000.51	1000.49	1000.47	1000.44	1000.41	1000.38	1000.34	1000.3	1000.26
m1 = 0.0179	1001.09	1001.08	1001.06	1001.03	1001.01	1000.98	1000.94	1000.9	1000.87	1000.82
m1 = 0.0306	1001.9	1001.88	1001.86	1001.84	1001.81	1001.78	1001.74	1001.71	1001.66	1001.62
m1 = 0.0352	1002.2	1002.18	1002.16	1002.13	1002.11	1002.07	1002.04	1002	1001.96	1001.91
m1 = 0.0429	1002.69	1002.67	1002.65	1002.62	1002.59	1002.56	1002.52	1002.48	1002.44	1002.39
m1 = 0.0536	1003.37	1003.35	1003.33	1003.3	1003.27	1003.23	1003.2	1003.15	1003.11	1003.06
m1 = 0.0595	1003.74	1003.72	1003.7	1003.67	1003.64	1003.6	1003.56	1003.52	1003.48	1003.43
m1 = 0.0659	1004.14	1004.12	1004.09	1004.07	1004.03	1004	1003.96	1003.92	1003.87	1003.82
m1 = 0.0769	1004.83	1004.81	1004.78	1004.75	1004.72	1004.68	1004.64	1004.6	1004.56	1004.5
